Laboratory results as given in ChEMBL document CHEMBL3751718, “Synthesis and biological evaluation of lipid-like 5-(2-hydroxyethyl)-4-methyl-1,3-thiazole derivatives as potential anticancer and antimicrobial agents” (Medchemcomm, 2015).
Values after ≈ are worked out from the molar mass of the structure shown. Active and inactive are the calls of the source. The rule behind the calls is not given here.

Legend:
HT-1080 [1] = assay: Induction of nitric oxide production in human HT1080 cells by Griess assay; type: functional; set-up: concentration or dose not given beside the values
Bacillus cereus [2] = assay: Bactericidal activity against Bacillus cereus MSCL 330 incubated for 24 hrs followed by colony transfer to agar plates for 24 hrs by colony counting based assay; type: functional; conditions: MSCL 330, 24 h, read-out: MBC99.9
Bacillus cereus [3] = assay: Antibacterial activity against Bacillus cereus MSCL 330 after 24 hrs by broth dilution method; type: functional; conditions: MSCL 330, 24 h
Escherichia coli [4] = assay: Antibacterial activity against Escherichia coli MSCL 332 at 5 mg/ml after 24 hrs by agar dish diffusion method; type: functional
[5] = Cytotoxicity against mouse NIH/3T3 cells assessed as cell viability at 6.25 to 50 ug/ml by neutral red-based assay; conditions: nih3t3
MG-22A [6] = assay: Cytotoxicity against mouse MG-22A cells assessed as cell viability at 6.25 to 50 ug/ml by crystal violet-based assay; type: functional; conditions: for CC50: read-out: LC50 (the source's name)
[7] = (§1) Cytotoxicity against human HT1080 cells assessed as cell viability at 6.25 to 50 ug/ml by crystal violet-based assay; type: functional; conditions: HT-1080, read-out: LC50 (the source's name)
Candida albicans [8] = assay: Antifungal activity against Candida albicans MSCL 378 after 24 hrs by broth dilution method; type: functional; conditions: MSCL 378, 24 h
Candida albicans [9] = assay: Antifungal activity against Candida albicans MSCL 378 at 10 mg/ml after 48 hrs by agar dish diffusion method; type: functional; conditions: MSCL 378, 48 h, read-out: DIZ
Proteus mirabilis [10] = assay: Antibacterial activity against Proteus mirabilis MSCL 590 at 5 mg/ml after 24 hrs by agar dish diffusion method; type: functional
Bacillus cereus [11] = assay: Antibacterial activity against Bacillus cereus MSCL 330 at 10 mg/ml after 24 hrs by agar dish diffusion method; type: functional; conditions: for zone of inhibition at 10000 µg/mL: MSCL 330, 24 h, read-out: DIZ
MG-22A [12] = assay: Induction of nitric oxide production in mouse MG-22A cells by Griess assay; type: functional; set-up: concentration or dose not given beside the values
Aspergillus niger [13] = assay: Antifungal activity against Aspergillus niger MSCL 324 after 24 hrs by broth dilution method; type: functional; conditions: MSCL 324, 24 h
Staphylococcus aureus [14] = assay: Bactericidal activity against Staphylococcus aureus MSCL 334 incubated for 24 hrs followed by colony transfer to agar plates for 24 hrs by colony counting based assay; type: functional; conditions: MSCL 334, 24 h, read-out: MBC99.9
Bacillus cereus [15] = assay: Antibacterial activity against Bacillus cereus MSCL 330 at 5 mg/ml after 24 hrs by agar dish diffusion method; type: functional; conditions: for zone of inhibition at 5000 µg/mL: MSCL 330, 24 h, read-out: DIZ
Aspergillus niger [16] = assay: Antifungal activity against Aspergillus niger MSCL 324 at 10 mg/ml after 48 hrs by agar dish diffusion method; type: functional; conditions: MSCL 324, 48 h, read-out: DIZ
Staphylococcus aureus [17] = assay: Antibacterial activity against Staphylococcus aureus MSCL 334 at 5 mg/ml after 24 hrs by agar dish diffusion method; type: functional; conditions: for zone of inhibition at 5000 µg/mL: MSCL 334, 24 h, read-out: DIZ
Escherichia coli [18] = assay: Antibacterial activity against Escherichia coli MSCL 332 at 10 mg/ml after 24 hrs by agar dish diffusion method; type: functional
Candida albicans [19] = assay: Fungicidal activity against Candida albicans MSCL 378 incubated for 24 hrs followed by colony transfer to agar plates for 24 hrs by colony counting based assay; type: functional; conditions: MSCL 378, 24 h, read-out: MFC99.9
Candida albicans [20] = assay: Antifungal activity against Candida albicans MSCL 378 at 5 mg/ml after 48 hrs by agar dish diffusion method; type: functional; conditions: MSCL 378, 48 h, read-out: DIZ
Staphylococcus aureus [21] = assay: Antibacterial activity against Staphylococcus aureus MSCL 334 at 10 mg/ml after 24 hrs by agar dish diffusion method; type: functional; conditions: for zone of inhibition at 10000 µg/mL: MSCL 334, 24 h, read-out: DIZ
Proteus mirabilis [22] = assay: Antibacterial activity against Proteus mirabilis MSCL 590 at 10 mg/ml after 24 hrs by agar dish diffusion method; type: functional
[23] = (§2) Cytotoxicity against human HT1080 cells assessed as cell viability at 6.25 to 50 ug/ml after 72 hrs by MTT assay; type: functional; conditions: HT-1080, 72 h, read-out: LC50 (the source's name)
Pseudomonas aeruginosa [24] = assay: Antibacterial activity against Pseudomonas aeruginosa MSCL 331 at 5 mg/ml after 24 hrs by agar dish diffusion method; type: functional
MG-22A [25] = assay: Cytotoxicity against mouse MG-22A cells assessed as cell viability at 6.25 to 50 ug/ml after 72 hrs by MTT assay; type: functional; conditions: for CC50: read-out: LC50 (the source's name)
Aspergillus niger [26] = assay: Antifungal activity against Aspergillus niger MSCL 324 at 5 mg/ml after 48 hrs by agar dish diffusion method; type: functional; conditions: for zone of inhibition at 5000 µg/mL: MSCL 324, 48 h, read-out: DIZ
Staphylococcus aureus [27] = assay: Antibacterial activity against Staphylococcus aureus MSCL 334 after 24 hrs by broth dilution method; type: functional; conditions: MSCL 334, 24 h
Pseudomonas aeruginosa [28] = assay: Antibacterial activity against Pseudomonas aeruginosa MSCL 331 at 10 mg/ml after 24 hrs by agar dish diffusion method; type: functional
Aspergillus niger [29] = assay: Fungicidal activity against Aspergillus niger MSCL 324 incubated for 24 hrs followed by colony transfer to agar plates for 24 hrs by colony counting based assay; type: functional; conditions: MSCL 324, 24 h, read-out: MFC99.9
Escherichia coli [30] = assay: Bactericidal activity against Escherichia coli MSCL 332 incubated for 24 hrs followed by colony transfer to agar plates for 24 hrs by colony counting based assay; type: functional; conditions: MSCL 332, 24 h, read-out: MBC99.9
Escherichia coli [31] = assay: Antibacterial activity against Escherichia coli MSCL 332 after 24 hrs by broth dilution method; type: functional; conditions: MSCL 332, 24 h
HT-1080 [32] = assay: as §1; type: functional
HT-1080 [33] = assay: as §2; type: functional

Compound	Activity (HT-1080 [1])	MBC (Bacillus cereus [2])	MIC (Bacillus cereus [3])	diameter of the inhibition zone (DIZ) (Escherichia coli [4])	LC50 [5]	CC50 (MG-22A [6])	CC50 [7]	MIC (Candida albicans [8])	zone of inhibition at 10000 µg/mL (Candida albicans [9])	diameter of the inhibition zone (DIZ) (Proteus mirabilis [10])	zone of inhibition at 10000 µg/mL (Bacillus cereus [11])	Activity (MG-22A [12])	MIC (Aspergillus niger [13])	zone of inhibition at 5000 µg/mL (Bacillus cereus [15])	zone of inhibition at 10000 µg/mL (Aspergillus niger [16])	MFC (Candida albicans [19])	zone of inhibition at 5000 µg/mL (Candida albicans [20])	CC50 [23]	CC50 (MG-22A [25])	MFC (Aspergillus niger [29])	also measured
CCCCCCCOCCc1scnc1C	200%	> 256 µg/mL	64 µg/mL (≈ 265 µM)	inactive	224 µM	37.3 µM	62.2 µM	64 µg/mL (≈ 265 µM)	13 mm	inactive	12 mm	200%	16 µg/mL (≈ 66.3 µM)	12 mm	15 mm	128 µg/mL (≈ 530 µM)	13 mm	70.5 µM	49.7 µM	256 µg/mL (≈ 1060 µM)	MBC (Staphylococcus aureus [14]): 64 µg/mL (≈ 265 µM); zone of inhibition at 5000 µg/mL (Staphylococcus aureus [17]): 11 mm; diameter of the inhibition zone (DIZ) (Escherichia coli [18]): inactive; zone of inhibition at 10000 µg/mL (Staphylococcus aureus [21]): 15 mm; diameter of the inhibition zone (DIZ) (Proteus mirabilis [22]): inactive; diameter of the inhibition zone (DIZ) (Pseudomonas aeruginosa [24]): inactive; zone of inhibition at 5000 µg/mL (Aspergillus niger [26]): 15 mm; MIC (Staphylococcus aureus [27]): 16 µg/mL (≈ 66.3 µM); diameter of the inhibition zone (DIZ) (Pseudomonas aeruginosa [28]): inactive
CCCCCCCCCCOCCc1scnc1C	400%	> 256 µg/mL	2 µg/mL (≈ 7.06 µM)	inactive	84.8 µM	38.8 µM	60 µM	> 256 µg/mL	9 mm	inactive	10 mm	200%	32 µg/mL (≈ 113 µM)	9 mm	11 mm	> 256 µg/mL	13 mm	63.6 µM	45.9 µM	64 µg/mL (≈ 226 µM)	diameter of the inhibition zone (DIZ) (Staphylococcus aureus [17]): inactive; diameter of the inhibition zone (DIZ) (Escherichia coli [18]): inactive; zone of inhibition at 10000 µg/mL (Staphylococcus aureus [21]): 10 mm; diameter of the inhibition zone (DIZ) (Proteus mirabilis [22]): inactive; diameter of the inhibition zone (DIZ) (Pseudomonas aeruginosa [24]): inactive; zone of inhibition at 5000 µg/mL (Aspergillus niger [26]): 11 mm; diameter of the inhibition zone (DIZ) (Pseudomonas aeruginosa [28]): inactive
CCCCCCCCCC[n+]1csc(CCOCCCCCCC)c1C.[I-]	250%	32 µg/mL	8 µg/mL	–	19.6 µM	0.19 µM	3.93 µM	16 µg/mL	21 mm	–	21 mm	350%	16 µg/mL	20 mm	19 mm	16 µg/mL	20 mm	3.93 µM	1.96 µM	16 µg/mL	MBC (Escherichia coli [30]): 64 µg/mL; zone of inhibition at 5000 µg/mL (Escherichia coli [4]; MSCL 332, 24 h, read-out: DIZ): 15 mm; zone of inhibition at 5000 µg/mL (Proteus mirabilis [10]; MSCL 590, 24 h, read-out: DIZ): 11 mm; MBC (Staphylococcus aureus [14]): 4 µg/mL; zone of inhibition at 5000 µg/mL (Staphylococcus aureus [17]): 21 mm; zone of inhibition at 10000 µg/mL (Escherichia coli [18]; MSCL 332, 24 h, read-out: DIZ): 20 mm; MIC (Escherichia coli [31]): 32 µg/mL; zone of inhibition at 10000 µg/mL (Staphylococcus aureus [21]): 22 mm; zone of inhibition at 10000 µg/mL (Proteus mirabilis [22]; MSCL 590, 24 h, read-out: DIZ): 12 mm; zone of inhibition at 5000 µg/mL (Pseudomonas aeruginosa [24]; MSCL 331, 24 h, read-out: DIZ): 16 mm; zone of inhibition at 5000 µg/mL (Aspergillus niger [26]): 17 mm; MIC (Staphylococcus aureus [27]): 1 µg/mL; zone of inhibition at 10000 µg/mL (Pseudomonas aeruginosa [28]; MSCL 331, 24 h, read-out: DIZ): 20 mm
Cc1ncsc1CCO	4%	–	–	–	–	–	–	–	–	–	–	4%	–	–	–	–	–	–	–	–	LC50 (MG-22A [6]): inactive; LC50 (HT-1080 [32]): inactive; LC50 (HT-1080 [33]): inactive; LC50 (MG-22A [25]): inactive
CCCCCCCCCCCCCCCCCCOCCc1scnc1C	4%	–	–	inactive	528 µg/mL	> 100 µg/mL	> 100 µg/mL	> 256 µg/mL	14 mm	inactive	–	5%	> 256 µg/mL	–	11 mm	> 256 µg/mL	10 mm	> 100 µg/mL	> 100 µg/mL	> 256 µg/mL	diameter of the inhibition zone (DIZ) (Bacillus cereus [11]): inactive; diameter of the inhibition zone (DIZ) (Bacillus cereus [15]): inactive; diameter of the inhibition zone (DIZ) (Staphylococcus aureus [17]): inactive; diameter of the inhibition zone (DIZ) (Escherichia coli [18]): inactive; diameter of the inhibition zone (DIZ) (Staphylococcus aureus [21]): inactive; diameter of the inhibition zone (DIZ) (Proteus mirabilis [22]): inactive; diameter of the inhibition zone (DIZ) (Pseudomonas aeruginosa [24]): inactive; diameter of the inhibition zone (DIZ) (Aspergillus niger [26]): inactive; diameter of the inhibition zone (DIZ) (Pseudomonas aeruginosa [28]): inactive
